Results as given in patent US11434219B2, “Purification of cannabinoids from crude cannabis oil” (TABA IP, LLC, priority 2018, dated 2022).
≈ marks a conversion by molar mass, not a printed value.

Assay: Solvent survey: solubility of THCA in solvents
Format: physicochemical
Protocol: Crystallization of THCA solvent survey study is carried out according the general procedure described above at 0° C. using crystalline THCA standard (rather than cannabis oil). The solubility (g/mL) provided an indication of loading capacities: higher loading capacities are desirable to make the process more efficient. The theoretical yield of THCA is determined based on the purity of the standard, which was 97.4%.

CCCCCc1cc2c(c(O)c1C(=O)O)[C@@H]1C=C(C)CC[C@H]1C(C)(C)O2 [THCA, tetrahydrocannabinolic acid]
Solubility (g/mL) 22.8° C. (solvent 1-Butanol): 0.151 g/mL (≈ 421 mM) | Solubility (g/mL) 30° C. (solvent 1-Butanol): 0.258 g/mL (≈ 720 mM) | Solubility (g/mL) 40° C. (solvent 1-Butanol): 0.514 g/mL (≈ 1430 mM) | Solubility (g/mL) 22.8° C. (solvent Acetone): 0.818 g/mL (≈ 2280 mM) | Solubility (g/mL) 30° C. (solvent Acetone): 1.063 g/mL (≈ 2970 mM) | Solubility (g/mL) 40° C. (solvent Acetone): 1.440 g/mL (≈ 4020 mM) | Solubility (g/mL) 22.8° C. (solvent Acetonitrile): 0.562 g/mL (≈ 1570 mM) | Solubility (g/mL) 30° C. (solvent Acetonitrile): 0.953 g/mL (≈ 2660 mM) | Solubility (g/mL) 40° C. (solvent Acetonitrile): 1.230 g/mL (≈ 3430 mM) | Solubility (g/mL) 22.8° C. (solvent DMA): 0.498 g/mL (≈ 1390 mM) | Solubility (g/mL) 30° C. (solvent DMA): 0.650 g/mL (≈ 1810 mM) | Solubility (g/mL) 40° C. (solvent DMA): 0.892 g/mL (≈ 2490 mM) | Solubility (g/mL) 22.8° C. (solvent DMF): 0.612 g/mL (≈ 1710 mM) | Solubility (g/mL) 30° C. (solvent DMF): 0.929 g/mL (≈ 2590 mM) | Solubility (g/mL) 40° C. (solvent DMF): 1.171 g/mL (≈ 3270 mM) | Solubility (g/mL) 22.8° C. (solvent Ethyl Acetate): 0.555 g/mL (≈ 1550 mM) | Solubility (g/mL) 30° C. (solvent Ethyl Acetate): 0.931 g/mL (≈ 2600 mM) | Solubility (g/mL) 40° C. (solvent Ethyl Acetate): 1.216 g/mL (≈ 3390 mM) | Solubility (g/mL) 22.8° C. (solvent Heptane): 0.092 g/mL (≈ 257 mM) | Solubility (g/mL) 30° C. (solvent Heptane): 0.155 g/mL (≈ 432 mM) | Solubility (g/mL) 40° C. (solvent Heptane): 0.258 g/mL (≈ 720 mM) | Solubility (g/mL) 22.8° C. (solvent THF): 0.743 g/mL (≈ 2070 mM) | Solubility (g/mL) 30° C. (solvent THF): 1.057 g/mL (≈ 2950 mM) | Solubility (g/mL) 40° C. (solvent THF): 1.324 g/mL (≈ 3690 mM) | Solubility (g/mL) 22.8° C. (solvent n-Propanol): 0.140 g/mL (≈ 391 mM) | Solubility (g/mL) 30° C. (solvent n-Propanol): 0.360 g/mL (≈ 1000 mM) | Solubility (g/mL) 40° C. (solvent n-Propanol): 0.585 g/mL (≈ 1630 mM)
